Assay results reported in patent EP0219782A2, “Use of angiotensin-converting enzyme inhibitors in the treatment of atherosclerosis, thrombosis and peripheral vascular disease” (HOECHST AKTIENGESELLSCHAFT, priority 1985, dated 1987).

Legend:
Plättchenaggregation [1] = assay: Platelet aggregation in platelet-rich rabbit plasma in vitro (light transmission, Born); format: cell-based, Kaninchen
Source text: (§1) Plättchenreiches Kaninchenplasma wird wie von Born (Arzneimittel-Forsch. 31, 2012 (1981)) angegeben, gewonnen. Die Plättchenaggregation wird durch Erhöhung des Lichtdurchganges durch eine Küvette, die dieses Plasma enthält, gemessen. Die Plättchenzahl wird durch Verdünnung mit autologem, plättchenarmem Plasma auf 450000/mm^s eingestellt. […] Dagegen wird eine durch 4 pg/ml PGI2 bewirkte Aggregationshemmung gegen Arachidonsäure durch die Verbindung der Formel II in genannten Dosisbereich auf 100% gesteigert.

Plättchenaggregation [2] = assay: Acute study: ex vivo platelet aggregation after a single oral dose in conscious rabbits; parameters: species or system Kaninchen; conditions: single oral dose 1,0 - 10,0 mg/kg, plasma taken after 1 hour
Source text: as §1
Wache Kaninchen erhielten eine einmalige orale Dosis von 1,0 - 10,0 mg/kg der Verbindung der Formel II.
(§2) Nach 1 Stunde werden die Tiere getötet und plättchenreiches Plasma gewonnen. Die Plättchenaggregation wird wie unter A) beschrieben bestimmt.

Plättchenaggregation [3] = assay: Chronic study: ex vivo platelet aggregation after 14 days of dosing in conscious rabbits; parameters: species or system Kaninchen; conditions: 1 mg/kg/d for 14 days; found in all animals
Source text: as §1, §2
Wache Kaninchen erhielten 1 mg/kg/d der Verbindung der Formel II für 14 Tage, dann wurde wie unter 1) beschrieben weiter verfahren.

SMILES: CCOC(=O)[C@H](CCc1ccccc1)N[C@@H](C)C(=O)N1[C@H](C(=O)O)C[C@@H]2CCC[C@@H]21 [Formel II, N-(l-S-Carbethoxy-3-phenyl-propyl)-S-alanyl-cis-endo-2-azabicyclo[3.3.0]octan-3-S-carbonsäure]
- durch PGI2 bewirkte Aggregationshemmung gegen Arachidonsäure, gesteigert auf (Plättchenaggregation [1]; 4 pg/ml PGI2, compound at 0.1-10 pg/ml Plasma): 100%
- Einfluß auf die durch Kollagen ausgelöste Aggregation (Plättchenaggregation [1]; 0.1-10 pg/ml Plasma, stimulus 4 pg/ml Kollagen): keinen Einfluß
- Einfluß auf die durch Arachidonsäure ausgelöste Aggregation (Plättchenaggregation [1]; 0.1-10 pg/ml Plasma, stimulus 0.24 mmol/1 Arachidonsäure): keinen Einfluß
- Einfluß auf die durch ADP ausgelöste Aggregation (Plättchenaggregation [1]; 0.1-10 pg/ml Plasma, stimulus 5 mmol/1 ADP): keinen Einfluß
- Aggregation gegenüber ADP (Plättchenaggregation [2]): vermindert
- Aggregation gegenüber Kollagen (Plättchenaggregation [2]): vermindert
- Potenzierung der PGI2-Wirkung (Plättchenaggregation [2]): ebenfalls beobachtet
- Aggregation gegenüber Arachidonsäure (Plättchenaggregation [2]; effect especially against Arachidonsäure): vermindert
- durch ADP ausgelöste Plättchenaggregation (Plättchenaggregation [3]): ausgeprägte Inhibierung
- durch Arachidonsäure ausgelöste Plättchenaggregation (Plättchenaggregation [3]): ausgeprägte Inhibierung
